Key:
[1] = target: T1, 4-galactosyl-N-acetylglucosaminide 3-alpha-L-fucosyltransferase FUT5 (Homo sapiens, UniProt Q11128); assay: Inhibitory activity against fucosyltransferase (FucT V) in the presence of fucosyl acceptor N-acetyllactosamine
T1 sequence (Q11128 whole entry): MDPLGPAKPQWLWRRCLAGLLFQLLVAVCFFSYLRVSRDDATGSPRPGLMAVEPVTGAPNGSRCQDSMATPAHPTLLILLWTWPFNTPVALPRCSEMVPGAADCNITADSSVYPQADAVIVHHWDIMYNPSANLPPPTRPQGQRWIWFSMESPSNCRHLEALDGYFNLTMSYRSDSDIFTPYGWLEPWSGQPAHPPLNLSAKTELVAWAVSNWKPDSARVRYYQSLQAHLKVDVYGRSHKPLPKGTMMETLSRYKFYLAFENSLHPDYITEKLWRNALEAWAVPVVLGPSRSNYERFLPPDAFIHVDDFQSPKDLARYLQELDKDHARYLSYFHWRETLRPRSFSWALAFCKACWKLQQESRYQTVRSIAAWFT

[2] = target: T1, 4-galactosyl-N-acetylglucosaminide 3-alpha-L-fucosyltransferase FUT5; assay: Inhibitory activity against fucosyltransferase (FucT V) in the presence of 10 mM fucosyl acceptor N-acetyllactosamine
[3] = target: T1, 4-galactosyl-N-acetylglucosaminide 3-alpha-L-fucosyltransferase FUT5; assay: Inhibitory activity against fucosyltransferase (FucT V) in the presence of 1 mM fucosyl acceptor N-acetyllactosamine

## Nc1nc2c(ncn2[C@@H]2O[C@H](COP(=O)(O)OP(=O)(O)O)[C@@H](O)[C@H]2O)c(=O)[nH]1
[1]
  IC50: 67 µM

## C[C@@H]1N[C@H](COP(=O)(O)OP(=O)(O)OC[C@H]2O[C@@H](n3cnc4c(O)nc(N)nc43)[C@H](O)[C@@H]2O)[C@@H](O)[C@@H]1O
[2]
  IC50: 82 µM
[3]
  IC50: 45 µM

## NCCOP(=O)(O)OP(=O)(O)OC[C@H]1O[C@@H](n2cnc3c(O)nc(N)nc32)[C@H](O)[C@@H]1O
[1]
  IC50: > 1000 µM

From ChEMBL document CHEMBL1134803, “Inhibition of fucosyltransferase V by a GDP-Azasugar” (Bioorg Med Chem Lett, 2001)
